tested on: HCT116 colorectal cancer cells; assay: Cisplatin sensitization assay (96 h MTS cell viability); format: cell-based; conditions: Cisplatin sensitization value;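 further: compound concentration needed to lower the IC50 of Cisplatin alone by a set fold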
In short: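 The MTS viability read, after 1 h with reagent, followed 96 h of co-treatment at 37° C. in 5% CO2. Both compound and cisplatin were titrated 2-fold from a 10 μM top final concentration in a complete concentration matrix on HCT116 cells. Scores +++/++/+ reflect cisplatin sensitization value ranges.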

| Compound | Cisplatin Sensitization Assay |
| --- | --- |
| COc1cncc(NC(=O)c2c(N)nn3cc(F)cnc23)c1C1CC1 [I-C-84, 2-amino-N-(4-cyclopropyl-5-methoxypyridin-3-yl)-6-fluoropyrazolo[1,5-a]pyrimidine-3-carboxamide] | ++ (Compounds with a Cisplatin sensitization value >0.02 μM but <0.2 μM are marked with “++.”) |
| CN1CCN(C(=O)C2CCN(c3ccncc3NC(=O)c3c(N)nn4cc(F)cnc34)CC2)CC1 [I-G-1, 2-amino-6-fluoro-N-(4-(4-(4-methylpiperazine-1-carbonyl)piperidin-1-yl)pyridin-3-yl)pyrazolo[1,5-a]pyrimidine-3-carboxamide] | +++ (Compounds with a Cisplatin sensitization value of <0.02 μM are marked with “+++.”) |
| CN(C)C(=O)C1CCN(c2ccncc2NC(=O)c2c(N)nn3cc(F)cnc23)CC1 [I-G-2, 2-amino-N-(4-(4-(dimethylcarbamoyl)piperidin-1-yl)pyridin-3-yl)-6-fluoropyrazolo[1,5-a]pyrimidine-3-carboxamide] | +++ (Compounds with a Cisplatin sensitization value of <0.02 μM are marked with “+++.”) |
| CN1CCN(C(=O)C2CCN(c3c(Cl)cncc3NC(=O)c3c(N)nn4cc(F)cnc34)CC2)CC1 [I-G-3, 2-amino-N-(5-chloro-4-(4-(4-methylpiperazine-1-carbonyl)piperidin-1-yl)pyridin-3-yl)-6-fluoropyrazolo[1,5-a]pyrimidine-3-carboxamide] | +++ (Compounds with a Cisplatin sensitization value of <0.02 μM are marked with “+++.”) |
| CN1CCN(C(=O)C2CCN(c3c(F)cncc3NC(=O)c3c(N)nn4cc(F)cnc34)CC2)CC1 [I-G-4, 2-amino-6-fluoro-N-(5-fluoro-4-(4-(4-methylpiperazine-1-carbonyl)piperidin-1-yl)pyridin-3-yl)pyrazolo[1,5-a]pyrimidine-3-carboxamide] | +++ (Compounds with a Cisplatin sensitization value of <0.02 μM are marked with “+++.”) |
| CN1CCN(C(=O)C2CCN(c3c(F)cncc3NC(=O)c3c(N)nn4cc(Cl)cnc34)CC2)CC1 [I-G-5, 2-amino-6-chloro-N-(5-fluoro-4-(4-(4-methylpiperazine-1-carbonyl)piperidin-1-yl)pyridin-3-yl)pyrazolo[1,5-a]pyrimidine-3-carboxamide] | +++ (Compounds with a Cisplatin sensitization value of <0.02 μM are marked with “+++.”) |
| CN1CCCN(C(=O)C2CCN(c3c(F)cncc3NC(=O)c3c(N)nn4cc(F)cnc34)CC2)CC1 [I-G-6, 2-amino-6-fluoro-N-(5-fluoro-4-(4-(4-methyl-1,4-diazepane-1-carbonyl)piperidin-1-yl)pyridin-3-yl)pyrazolo[1,5-a]pyrimidine-3-carboxamide] | +++ (Compounds with a Cisplatin sensitization value of <0.02 μM are marked with “+++.”) |
| Nc1nn2cc(F)cnc2c1C(=O)Nc1cncc(F)c1N1CCC(C(=O)N2CCN3CCC2CC3)CC1 [I-G-7, N-(4-(4-(1,4-diazabicyclo[3.2.2]nonane-4-carbonyl)piperidin-1-yl)-5-fluoropyridin-3-yl)-2-amino-6-fluoropyrazolo[1,5-a]pyrimidine-3-carboxamide] | +++ (Compounds with a Cisplatin sensitization value of <0.02 μM are marked with “+++.”) |
| Nc1nn2cc(F)cnc2c1C(=O)Nc1cncc(F)c1N1CCC(C(=O)N2CCC2)CC1 [I-G-8, 2-amino-N-(4-(4-(azetidine-1-carbonyl)piperidin-1-yl)-5-fluoropyridin-3-yl)-6-fluoropyrazolo[1,5-a]pyrimidine-3-carboxamide] | +++ (Compounds with a Cisplatin sensitization value of <0.02 μM are marked with “+++.”) |
| CCN1CCN(C(=O)C2CCN(c3c(F)cncc3NC(=O)c3c(N)nn4cc(F)cnc34)CC2)CC1 [I-G-9, 2-amino-N-(4-(4-(4-ethylpiperazine-1-carbonyl)piperidin-1-yl)-5-fluoropyridin-3-yl)-6-fluoropyrazolo[1,5-a]pyrimidine-3-carboxamide] | +++ (Compounds with a Cisplatin sensitization value of <0.02 μM are marked with “+++.”) |
| Nc1nn2cc(F)cnc2c1C(=O)Nc1cncc(F)c1N1CCC(C(=O)N2CCN3CCCC3C2)CC1 (stereo not drawn) [I-G-10, 2-amino-6-fluoro-N-(5-fluoro-4-(4-(octahydropyrrolo[1,2-a]pyrazine-2-carbonyl)piperidin-1-yl)pyridin-3-yl)pyrazolo[1,5-a]pyrimidine-3-carboxamide] | +++ (Compounds with a Cisplatin sensitization value of <0.02 μM are marked with “+++.”) |
| CN(C)[C@@H]1CCN(C(=O)C2CCN(c3c(F)cncc3NC(=O)c3c(N)nn4cc(F)cnc34)CC2)C1 [I-G-11, (R)-2-amino-N-(4-(4-(3-(dimethylamino)pyrrolidine-1-carbonyl)piperidin-1-yl)-5-fluoropyridin-3-yl)-6-fluoropyrazolo[1,5-a]pyrimidine-3-carboxamide] | +++ (Compounds with a Cisplatin sensitization value of <0.02 μM are marked with “+++.”) |
| Nc1nn2cc(F)cnc2c1C(=O)Nc1cncc(F)c1N1CCC(C(=O)N2CCNCC2)CC1 [I-G-12, 2-amino-6-fluoro-N-(5-fluoro-4-(4-(piperazine-1-carbonyl)piperidin-1-yl)pyridin-3-yl)pyrazolo[1,5-a]pyrimidine-3-carboxamide] | +++ (Compounds with a Cisplatin sensitization value of <0.02 μM are marked with “+++.”) |
| Nc1nn2cc(F)cnc2c1C(=O)Nc1cncc(F)c1N1CCC(C(=O)N2CCN(C3CC3)CC2)CC1 [I-G-13, 2-amino-N-(4-(4-(4-cyclopropylpiperazine-1-carbonyl)piperidin-1-yl)-5-fluoropyridin-3-yl)-6-fluoropyrazolo[1,5-a]pyrimidine-3-carboxamide] | +++ (Compounds with a Cisplatin sensitization value of <0.02 μM are marked with “+++.”) |
| CN1CCN(C(=O)C2CCN(c3c(F)cncc3NC(=O)c3c(N)nn4cc(F)cnc34)CC2)CC1(C)C [I-G-15, 2-amino-6-fluoro-N-(5-fluoro-4-(4-(3,3,4-trimethylpiperazine-1-carbonyl)piperidin-1-yl)pyridin-3-yl)pyrazolo[1,5-a]pyrimidine-3-carboxamide] | +++ (Compounds with a Cisplatin sensitization value of <0.02 μM are marked with “+++.”) |
| CN(C)CCCN(C)C(=O)C1CCN(c2c(F)cncc2NC(=O)c2c(N)nn3cc(F)cnc23)CC1 [I-G-16, 2-amino-N-(4-(4-((3-(dimethylamino)propyl)(methyl)carbamoyl)piperidin-1-yl)-5-fluoropyridin-3-yl)-6-fluoropyrazolo[1,5-a]pyrimidine-3-carboxamide] | +++ (Compounds with a Cisplatin sensitization value of <0.02 μM are marked with “+++.”) |
| CNCCCN(C)C(=O)C1CCN(c2c(F)cncc2NC(=O)c2c(N)nn3cc(F)cnc23)CC1 [I-G-17] | + (Compounds with a Cisplatin sensitization value >0.2 μM but <5 μM are marked with “+.”) |
| CN1CC2CN(C(=O)C3CCN(c4c(F)cncc4NC(=O)c4c(N)nn5cc(F)cnc45)CC3)CC2C1 (stereo not drawn) [I-G-18, 2-amino-6-fluoro-N-(5-fluoro-4-(4-(5-methyloctahydropyrrolo[3,4-c]pyrrole-2-carbonyl)piperidin-1-yl)pyridin-3-yl)pyrazolo[1,5-a]pyrimidine-3-carboxamide] | +++ (Compounds with a Cisplatin sensitization value of <0.02 μM are marked with “+++.”) |
| CC(C)(C)NC(=O)C1CCN(c2c(F)cncc2NC(=O)c2c(N)nn3cc(F)cnc23)CC1 [I-G-19, 2-amino-N-(4-(4-(tert-butylcarbamoyl)piperidin-1-yl)-5-fluoropyridin-3-yl)-6-fluoropyrazolo[1,5-a]pyrimidine-3-carboxamide] | ++ (Compounds with a Cisplatin sensitization value >0.02 μM but <0.2 μM are marked with “++.”) |
| CN1CCC(NC(=O)C2CCN(c3c(F)cncc3NC(=O)c3c(N)nn4cc(F)cnc34)CC2)CC1 [I-G-20, 2-amino-6-fluoro-N-(5-fluoro-4-(4-((1-methylpiperidin-4-yl)carbamoyl)piperidin-1-yl)pyridin-3-yl)pyrazolo[1,5-a]pyrimidine-3-carboxamide] | + (Compounds with a Cisplatin sensitization value >0.2 μM but <5 μM are marked with “+.”) |
| COC1CN(C(=O)C2CCN(c3c(F)cncc3NC(=O)c3c(N)nn4cc(F)cnc34)CC2)C1 [I-G-21, 2-amino-6-fluoro-N-(5-fluoro-4-(4-(3-methoxyazetidine-1-carbonyl)piperidin-1-yl)pyridin-3-yl)pyrazolo[1,5-a]pyrimidine-3-carboxamide] | +++ (Compounds with a Cisplatin sensitization value of <0.02 μM are marked with “+++.”) |
| CN(C)C1CN(C(=O)C2CCN(c3c(F)cncc3NC(=O)c3c(N)nn4cc(F)cnc34)CC2)C1 [I-G-22, 2-amino-N-(4-(4-(3-(dimethylamino)azetidine-1-carbonyl)piperidin-1-yl)-5-fluoropyridin-3-yl)-6-fluoropyrazolo[1,5-a]pyrimidine-3-carboxamide] | +++ (Compounds with a Cisplatin sensitization value of <0.02 μM are marked with “+++.”) |
| CN1CC(NC(=O)C2CCN(c3c(F)cncc3NC(=O)c3c(N)nn4cc(F)cnc34)CC2)C1 [I-G-23, 2-amino-6-fluoro-N-(5-fluoro-4-(4-((1-methylazetidin-3-yl)carbamoyl)piperidin-1-yl)pyridin-3-yl)pyrazolo[1,5-a]pyrimidine-3-carboxamide] | +++ (Compounds with a Cisplatin sensitization value of <0.02 μM are marked with “+++.”) |
| CN1CCC(NC(=O)C2CCN(c3c(F)cncc3NC(=O)c3c(N)nn4cc(F)cnc34)CC2)C1 (stereo not drawn) [I-G-24, 2-amino-6-fluoro-N-(5-fluoro-4-(4-((1-methylpyrrolidin-3-yl)carbamoyl)piperidin-1-yl)pyridin-3-yl)pyrazolo[1,5-a]pyrimidine-3-carboxamide] | +++ (Compounds with a Cisplatin sensitization value of <0.02 μM are marked with “+++.”) |
